# Where two headings read alike, the source gives them in different places.
# Experiments:
# VRE = assay: MIC against VRE; type: cell-based, Enterococcus faecalis; conditions: Enterococcus, TABLE 23, read-out: VRE MIC
# Method: In a 12×75 mm borosilicate glass culture tube, 1 mL of cell suspension was added. Then, compound 7 was added to the cells, and the samples were mixed using a vortex mixer. […] The samples were incubated overnight at 37° C. on a rotary shaking incubator at 100 rpm.
# MRSA [1] = assay: Resensitization to antibiotics (log reduction, TABLE 29); type: cell-based, S. aureus; conditions: compound 8 μM; Oxacillin ([…])
# Method: In a 96-well microtiter plate, two-fold dilutions were made of each drug (starting with 100 μM) in 100 μL of a cell suspension in TSB. The resulting samples were incubated overnight at 37° C. on a rotary shaking incubator at 100 rpm. The samples were then visually inspected for turbidity. A 20% well volume of MTT reagent (5 mg/mL) was subsequently added, and the samples were incubated for about 20 minutes.
# [2] = tested on: MRSA isolates (S. aureus ATCC 33591, BAA-44, BAA-1707, BAA-1717, BAA-1720, BAA-1747, BAA-1754, BAA-1761, BAA-1763, BAA-1764, BAA-1766); assay: Combination effects of compounds 7-11 and antibiotics on MRSA isolates (turbidity); type: cell-based
# Excerpt: Inhibition resulting from co-treatment of a broth suspension with a compound of the invention and an antibiotic was compared to broth suspensions subjected to each individual treatment. A visual observation of inhibition with the unaided eye upon co-treatment of the broth suspensions, based on turbidity, was considered synergistic.
# Exceptions to reading complete inhibition of growth included Gram-positive cocci. For Gram-positive cocci, trailing growth was observed. For these species, the MICs were read at the first spot where trailing was observed, and tiny buttons of growth were ignored. […]
# Two-fold dilutions of the antibiotics were prepared in a liquid growth medium dispensed in test tubes. […] The antibiotic-containing tubes were inoculated with a standard bacterial suspension of 5×10^5 CFU/mL. Following an overnight incubation (16-20 hrs) at 35±2° C. under ambient air, the tubes were examined for visible bacterial growth based on turbidity. The lowest concentration of antibiotic that prevented growth was determined to be the MIC. An incubation time of 24 hrs was used to determine the MICs of oxacillin and vancomycin.
# MRSA [3] = assay: Resensitization to antibiotics (log reduction, TABLE 29); type: cell-based, S. aureus; conditions: compound 8 μM; Norfloxacin (25 μg/mL)
# [4] = tested on: Klebsiella pneumoniae (CRE, ATCC BAA-1705); assay: Time-dependent colony counts of CRE with compounds and PME; type: cell-based; conditions: PME 0.2 μg/mL, compound 20 μM; FIGS. 48, 49
# Method: The MICs of PME and compounds 8-11 were determined against Klebsiella pneumoniae (CRE, ATCC BAA-1705). […] […] At specific time points, the samples were taken and diluted ten-fold in media. Ten microliters of each dilution was then drip-streaked onto an agar plate and incubated overnight at 37° C. Colony counts were then performed and the CFU/mL were calculated.
# HeLa cells = assay: Toxicity (IC50) on HeLa cells; type: cell-based, human
# Method: The toxicities of the compounds of the invention were determined for human cancerous cervical epithelium HeLa and normal lung fibroblast WI38 cells. The toxicities of EPIs INF-55 and INF-55Cl were quantified as controls. […] TABLE 2 compares the toxicity of compounds 7-11 on HeLa cells and normal WI38 cells.
# [5] = MIC against MRSA isolates; type: cell-based, S. aureus; conditions: Staphylococcus aureus
# Procedure, shortened: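 Broth microdilution in TSB, ~5×10^5 CFU/mL, two-fold dilutions from 100 μM, overnight at 37 °C shaking 100 rpm.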
smiles,measurement,setting,value
Clc1ccc(/N=N/c2c[nH]c3ccccc23)cc1 [Compound 9],MIC,VRE,> 200 µM
same,Log Reduction,MRSA [1],2-3
same,combination effect with Gentamycin,[2]; MRSA ATCC 33591,No Synergy
same,combination effect with Norfloxacin,[2]; MRSA ATCC 33591,No Synergy
same,combination effect with Oxacillin,[2]; MRSA ATCC 33591,No Synergy
same,combination effect with Tetracycline,[2]; MRSA ATCC 33591,No Synergy
same,combination effect with Vancomycin,[2]; MRSA ATCC 33591,Susceptible
same,combination effect with Norfloxacin,[2]; MRSA ATCC BAA-44,No Synergy
same,combination effect with Oxacillin,[2]; MRSA ATCC BAA-44,No Synergy
same,combination effect with Tetracycline,[2]; MRSA ATCC BAA-44,Susceptible
same,combination effect with Vancomycin,[2]; MRSA ATCC BAA-44,Susceptible
same,combination effect with Gentamycin,[2]; MRSA ATCC BAA-1707,Susceptible
same,combination effect with Norfloxacin,[2]; MRSA ATCC BAA-1707,Susceptible
same,combination effect with Oxacillin,[2]; MRSA ATCC BAA-1707,Susceptible
same,combination effect with Tetracycline,[2]; MRSA ATCC BAA-1707,No Synergy
same,combination effect with Vancomycin,[2]; MRSA ATCC BAA-1707,Susceptible
same,combination effect with Gentamycin,[2]; MRSA ATCC BAA-1717,Susceptible
same,combination effect with Norfloxacin,[2]; MRSA ATCC BAA-1717,Susceptible
same,combination effect with Oxacillin,[2]; MRSA ATCC BAA-1717,Synergy
same,combination effect with Tetracycline,[2]; MRSA ATCC BAA-1717,Susceptible
same,combination effect with Vancomycin,[2]; MRSA ATCC BAA-1717,Susceptible
same,combination effect with Gentamycin,[2]; MRSA ATCC BAA-1720,Susceptible
same,combination effect with Norfloxacin,[2]; MRSA ATCC BAA-1720,No Synergy
same,combination effect with Oxacillin,[2]; MRSA ATCC BAA-1720,Synergy
same,combination effect with Tetracycline,[2]; MRSA ATCC BAA-1720,Susceptible
same,combination effect with Vancomycin,[2]; MRSA ATCC BAA-1720,Susceptible
same,combination effect with Gentamycin,[2]; MRSA ATCC BAA-1747,Susceptible
same,combination effect with Norfloxacin,[2]; MRSA ATCC BAA-1747,Susceptible
same,combination effect with Oxacillin,[2]; MRSA ATCC BAA-1747,Susceptible
same,combination effect with Tetracycline,[2]; MRSA ATCC BAA-1747,Susceptible
same,combination effect with Vancomycin,[2]; MRSA ATCC BAA-1747,Susceptible
same,combination effect with Gentamycin,[2]; MRSA ATCC BAA-1754,Susceptible
same,combination effect with Norfloxacin,[2]; MRSA ATCC BAA-1754,Susceptible
same,combination effect with Oxacillin,[2]; MRSA ATCC BAA-1754,No Synergy
same,combination effect with Tetracycline,[2]; MRSA ATCC BAA-1754,Susceptible
same,combination effect with Vancomycin,[2]; MRSA ATCC BAA-1754,Susceptible
same,combination effect with Gentamycin,[2]; MRSA ATCC BAA-1761,Susceptible
same,combination effect with Norfloxacin,[2]; MRSA ATCC BAA-1761,No Synergy
same,combination effect with Oxacillin,[2]; MRSA ATCC BAA-1761,Susceptible
same,combination effect with Tetracycline,[2]; MRSA ATCC BAA-1761,Susceptible
same,combination effect with Vancomycin,[2]; MRSA ATCC BAA-1761,Susceptible
same,combination effect with Gentamycin,[2]; MRSA ATCC BAA-1763,Susceptible
same,combination effect with Norfloxacin,[2]; MRSA ATCC BAA-1763,No Synergy
same,combination effect with Oxacillin,[2]; MRSA ATCC BAA-1763,Synergy
same,combination effect with Tetracycline,[2]; MRSA ATCC BAA-1763,Susceptible
same,combination effect with Vancomycin,[2]; MRSA ATCC BAA-1763,Susceptible
same,combination effect with Gentamycin,[2]; MRSA ATCC BAA-1764,Susceptible
same,combination effect with Norfloxacin,[2]; MRSA ATCC BAA-1764,Susceptible
same,combination effect with Oxacillin,[2]; MRSA ATCC BAA-1764,Synergy
same,combination effect with Tetracycline,[2]; MRSA ATCC BAA-1764,Susceptible
same,combination effect with Vancomycin,[2]; MRSA ATCC BAA-1764,Susceptible
same,combination effect with Gentamycin,[2]; MRSA ATCC BAA-1766,Susceptible
same,combination effect with Norfloxacin,[2]; MRSA ATCC BAA-1766,Susceptible
same,combination effect with Oxacillin,[2]; MRSA ATCC BAA-1766,Synergy
same,combination effect with Tetracycline,[2]; MRSA ATCC BAA-1766,Susceptible
same,combination effect with Vancomycin,[2]; MRSA ATCC BAA-1766,Susceptible
same,Log Reduction,MRSA [3],2-3
same,CRE colony populations on simultaneous treatment with PME,[4],reduced the CRE colony populations to sterility
same,IC50,"HeLa cells; Homo sapiens, cancerous cervical epithelium HeLa cells",34.4 µM
same,toxicity to HeLa versus normal WI38 cells,HeLa cells; comparison of TABLE 2 values,killed cancerous HeLa cells at concentrations that were not toxic to normal WI38 cells
same,MIC,"[5]; MRSA (ATCC BAA-44), TABLE 21, read-out: MRSA MIC",16 µM
same,MIC,"[5]; MRSA isolate ATCC 33591, read-out: MIC",12.5 µM
same,MIC,"[5]; MRSA isolate ATCC BAA-44, read-out: MIC",16 µM
same,MIC,"[5]; MRSA isolate ATCC BAA-1707, read-out: MIC",12.5 µM
same,MIC,"[5]; MRSA isolate ATCC BAA-1717, read-out: MIC",6.3 to 12.5 µM
same,MIC,"[5]; MRSA isolate ATCC BAA-1720, read-out: MIC",12.5 µM
same,MIC,"[5]; MRSA isolate ATCC BAA-1747, read-out: MIC",12.5 µM
same,MIC,"[5]; MRSA isolate ATCC BAA-1754, read-out: MIC",12.5 µM
same,MIC,"[5]; MRSA isolate ATCC BAA-1761, read-out: MIC",12.5 µM
same,MIC,"[5]; MRSA isolate ATCC BAA-1763, read-out: MIC",12.5 µM
same,MIC,"[5]; MRSA isolate ATCC BAA-1764, read-out: MIC",12.5 µM
same,MIC,"[5]; MRSA isolate ATCC BAA-1766, read-out: MIC",12.5 µM

# Reference: US9834514B2, “Antibiotic sensitivity-restoring and photosensitive agents” (New Mexico Tech Research Foundation, priority 2015, dated 2017)
